Earlier results in patent publication US20080031951A1, “Compositions and methods for the inhibition of phospholipase A2” (priority 2005, published 2008).

Columns and labels:
[1] = tested on: intestine injury following ischemia and reperfusion; settings: rats, oral administration
colitis = settings: rats, dextran sulfate- and trinitrobenzene sulfonic acid-induced
toxoplasmosis = settings: injection, murine toxoplasmosis model
[2] = tested on: release of thromboxane A2 triggered by exogenously added hGIIA; settings: guinea pig BAL fluids containing macrophages, eosinophils and epithelial cells
sPLA2 activity = settings: guinea pig model of ARDS
hyperalgesia = settings: lumbar intrathecal administration, 3 rat models of hyperalgesia
hGIIA [3] = biological target: T1, hGIIA (Homo sapiens, UniProt P14555); design: host or cells: transgenic mice overexpressing hGIIA, blood; settings: intravenous administration, transgenic mice overexpressing hGIIA
hGIIA [4] = biological target: T1, hGIIA; settings: more potent than LY311727
sepsis and organ failure = settings: humans with sepsis and organ failure
mGIIA = mGIIA (Mus musculus, UniProt P31482)
pleurisy = settings: rat, carageenin-induced pleurisy
mGX = mGX (Mus musculus, UniProt Q9QXX3)
mGIID = mGIID (Mus musculus, UniProt Q9WVF6)
mGIIE = mGIIE (Mus musculus, UniProt Q9QUL3)
mGV = mGV (Mus musculus, UniProt P97391)
ear edema = settings: mice, tetracenoylphorbol-13-acetate induced
[5] = biological target: group X sPLA2 / M-type receptor; settings: mouse cells expressing the M-type receptor; read-out: IC50, block of binding of group X sPLA2 to M-type receptor
[6] = tested on: PGE2 production in rat gastric epithelial cells; settings: induced by TGF-α and IL-1, rat gastric epithelial cells
septic shock = settings: LPS injection, wild-type mice
[7] = biological target: T2, porcine pancreatic group IB sPLA2 / M-type receptor (Sus scrofa, UniProt P00592); settings: mouse cells expressing the M-type receptor; read-out: IC50, block of binding of porcine pancreatic group IB sPLA2 to M-type receptor
T2 construct: host or cells: mouse cells expressing the M-type receptor
T2 sequence (P00592 23-146): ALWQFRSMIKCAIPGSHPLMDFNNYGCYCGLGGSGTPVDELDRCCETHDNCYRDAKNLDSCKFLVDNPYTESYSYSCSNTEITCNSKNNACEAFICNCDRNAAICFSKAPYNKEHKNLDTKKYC

T1 sequence (P14555 21-144): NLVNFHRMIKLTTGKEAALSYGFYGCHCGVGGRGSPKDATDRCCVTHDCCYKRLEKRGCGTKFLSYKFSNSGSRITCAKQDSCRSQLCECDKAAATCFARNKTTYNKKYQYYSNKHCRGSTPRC
mGIID, sequence (Q9WVF6 20-144): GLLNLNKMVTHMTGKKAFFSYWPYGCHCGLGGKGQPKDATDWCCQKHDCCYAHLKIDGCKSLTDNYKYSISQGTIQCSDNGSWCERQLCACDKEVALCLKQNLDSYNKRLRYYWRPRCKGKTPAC
mGX, sequence (Q9QXX3 29-151): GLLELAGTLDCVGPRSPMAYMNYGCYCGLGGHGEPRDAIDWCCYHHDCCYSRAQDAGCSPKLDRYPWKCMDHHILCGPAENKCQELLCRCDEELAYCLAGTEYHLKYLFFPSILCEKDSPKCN
mGV, sequence (P97391 21-137): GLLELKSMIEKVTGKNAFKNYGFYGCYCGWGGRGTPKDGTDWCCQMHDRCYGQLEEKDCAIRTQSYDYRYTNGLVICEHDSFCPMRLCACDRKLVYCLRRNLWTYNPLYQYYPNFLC
mGIIE, sequence (Q9QUL3 20-142): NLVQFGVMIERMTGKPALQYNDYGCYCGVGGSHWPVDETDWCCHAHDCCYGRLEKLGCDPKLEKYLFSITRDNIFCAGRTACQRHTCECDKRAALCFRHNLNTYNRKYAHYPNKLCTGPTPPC
mGIIA, sequence (P31482 22-146): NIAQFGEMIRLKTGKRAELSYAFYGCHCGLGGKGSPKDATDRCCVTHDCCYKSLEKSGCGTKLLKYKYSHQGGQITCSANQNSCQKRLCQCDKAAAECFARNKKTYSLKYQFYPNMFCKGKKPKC

In the case of O=C(O)CC[C@@H](Cc1ccc(OCc2ccccc2)cc1)NC(=O)CCCCCCc1ccccc1 [5-(4-benzyloxyphenyl)-4s-(7-phenylheptanoylamino)-pentanoic acid], the “protection of intestine from ischemia and reperfusion injury” value [1] is given as “preserved rats intestine from injury” and the protection from colitis (colitis) is given as “protected rats”.

In the case of CCc1c(CC(N)=O)c2cc(OCCCP(=O)(O)O)ccc2n1Cc1ccccc1 [LY311727], the mortality (toxoplasmosis) is listed as “earlier mortality”, the “inhibition of release of thromboxane A2” value [2] is listed as “able to inhibit” and the “inhibition of sPLA2 activity induced by lipopolysaccharides” value (sPLA2 activity) is listed as “could also inhibit”. For the same compound, the inflammation-related symptoms (hyperalgesia) was “attenuated all the inflammation-related symptoms observed” and the “PLA2 catalytic activity in blood” value (hGIIA [3]) was “loss of PLA2 catalytic activity in blood”.

For CCc1c(C(=O)C(N)=O)c2c(OCC(=O)OC)cccc2n1Cc1ccccc1 [LY333013], the “effect on rheumatoid arthritis pathology, intravenous” value (rheumatoid arthritis; administered intravenously) is listed as “positive impacts on the pathology”, the “effect on rheumatoid arthritis pathology, oral” value (rheumatoid arthritis; orally distributed, patients with rheumatoid arthritis) is listed as “significant reduction of the pathology during the first week of trial, but the benefits were lost thereafter” and the protection from colitis (colitis) is listed as “protected rats”. For the same compound, the tolerability (asthma; in these patients) was “well tolerated” and the “benefit on inhaled allergen challenge” value (asthma; subjects with asthma) was “failed to show any benefit”.

For Cc1c(C(=O)C(N)=O)c2c(OCC(=O)O)cccc2n1Cc1ccccc1-c1ccccc1 [Me-indoxam], the “potency to inhibit hGIIA relative to LY311727” value (hGIIA [4]) is listed as “about 20 fold”.

For CCc1c(C(=O)C(N)=O)c2c(OCC(=O)[O-])cccc2n1Cc1ccccc1.[Na+] [S-5920/LY315920Na], the “clinical outcome versus placebo” value (sepsis and organ failure) is listed as “no significant differences”.

In the case of CCCCCCCCCCCC(=O)c1c(O)c(C(=O)CCCCCCCCCCC)c(O)c(C2CC(c3ccc(O)cc3)Oc3cc(O)ccc32)c1O (stereo not shown) [YM-26734], the “inhibition of mGIIA” value (mGIIA) is listed as “potent inhibitor”, the “accumulation of exudate fluid and leukocytes” value (pleurisy) is listed as “significantly decreased” and the “inhibition of mGX” value (mGX) is listed as “potent inhibitor”. The “inhibition of mGIID” value (mGIID) was “potent inhibitor”, the “inhibition of mGIIE” value (mGIIE) was “potent inhibitor” and the “inhibition of mGV” value (mGV) was “potent inhibitor”. The ear edema (ear edema) was “reduced”.

For CCc1c(C(=O)C(N)=O)c2c(OCC(=O)O)cccn2c1Cc1ccccc1-c1ccccc1 [indoxam], the IC50 [5] is listed as 900 nM, the PGE2 production [6] is listed as “inhibited” and the septic shock (septic shock) is listed as “attenuated”. For the same compound, the IC50 [7] was 130 nM.
